Laboratory results taken from patent US20160313303A1, “BICOMPATIBLE LIQUID AND METHOD FOR SCREENING SAME” (KABUSHIKI KAISHA TOYOTA CHUO KENKYUSHO, priority 2015, published 2016).
Like-named read-outs stand apart in the source and are kept apart here.

Legend:
[1] = tested on: Human airway epithelial cell line BEAS-2B; experiment: Cytotoxicity test (WST-8 assay) after direct contact of test liquids with cells for about 2 hours; normalized cell survival rate; conditions: direct contact with test liquid about 2 hours, WST-8 24 hours after contact, control liquid (0.5% FBS-containing RPMI-1640) = 1
[2] = tested on: leaves of Arabidopsis thaliana
Method: (§1) Further, the leaves used for the test after observation were soaked in water over 16 hours followed by observation. Water was used as a control. Although water is cytotoxic to naked cells, it is not cytotoxic to cells having cell walls, and thus could be used as a control.

[3] = tested on: leaves of Arabidopsis thaliana; experiment: Soaking of plant leaves in organic solvents, observation of appearance; conditions: for change in the appearance of leaves: leaf of A. thaliana soaked in the solvent, observed after 2 hours
Method: as §1

[4] = tested on: human airway epithelial cells Calu-3; experiment: WST-8 absorbance of cells on porous support after contact with solutions of PFOA in hydrofluoroether; format: cell-based; conditions: PFOA in hydrofluoroether (C4F9OC2H5); for absorbance (WST-8): 15 hours
Method: In the present Example, hydrofluoroether (C4F9OC2H5) was used as the non-hydrophilic liquid and perfluorooctanoic acid (PFOA) was used as the non-hydrophilic substance. Solutions of PFOA in hydrofluoroether having various PFOA concentrations ([…], 1 and 10 g/L) were prepared. The solutions correspond to the second liquid of the present disclosure.
In the similar manner as Example 4 except that the solutions of PFOA in hydrofluoroether were used, the procedure was carried out up to the pre-cultivation step. Thereafter the cultivation step was carried out by using the solutions as the second liquid and leaving the device in the CO2 incubator for 15 hours.
Thereafter […], was removed from the cavity of the insert 24, 200 μl of an aqueous solution of a medium containing WST-8 (2-(2-methoxy-4-nitrophenyl)-3(4-nitrophenyl)-5-(2,4-disulfophenyl)-2H-tetrazolium), which is a kind of a tetrazolium salt, was added and the device was let to stand in the CO2 incubator for 20 minutes for cultivation.
Thereafter 100 μl of the medium was transferred from the insert 24 of the cell structure into a microplate and the absorbance at the wavelengths 450 nm and 600 nm was measured.

[5] = tested on: human airway epithelial cells Calu-3; experiment: Transepithelial electric resistance (TER) of cells on porous support after contact with non-hydrophilic liquids; format: cell-based; conditions: Calu-3, 3 hours contact with 200 ul liquid, TER after 24 hours in fresh medium, FIG. 18
Method: In the present Example, an action of non-hydrophilic liquids having the fluorocarbon structure was evaluated using human airway epithelial cells Calu-3. As a device for evaluation, the evaluation device 20 illustrated in FIG. 16 was used. […] At the bottom of each insert, a porous support 28 is provided that can retain and cultivate cells.
Cells were inoculated on each support 28 in the insert 24 and the space in the well 22 other than the insert 24 and the cavity in the insert 24 were filled with the cell growth medium. The evaluation device 20 was then left to stand in a CO2 incubator for a few days to allow dense growth of cells on the whole upper surface of the support 28, thereby carrying out the pre-cultivation step. In the pre-cultivation step, the transepithelial electric resistance (TER) was measured over time to confirm that a barrier (coverage and functional tight junctions) was constructed on the surface of the cells that is in contact with the insert 24.
Next, a cell structure illustrated in FIG. 17 was prepared. […]
After 24 hours, the cells on the support 28 in the cell structure removed from the CO2 incubator were again measured for the transepithelial electric resistance (TER) after removal of the growth medium in order to confirm the extent of formation of the cell barrier. […]

Row | Compound | Normalized cell survival rate [1] | also measured
1 | O [P1, Water, reference compound] | 0.01 | –
2 | CCO [P2, Ethanol, reference compound] | 0.01 | change in the appearance of leaves [2]: eroded epidermal cells of the leaves of A. thaliana and caused effusion of chlorophyll
3 | CC(C)=O [P3, Acetone, reference compound] | 0.01 | change in the appearance of leaves [3]: eroded epidermal cells of the leaves of A. thaliana and caused effusion of chlorophyll; change in the appearance of leaves after subsequent soaking in water ([3]; leaves after the 2 hours test soaked in water over 16 hours, compared to control water): caused atrophy (deformation) of leaves of A. thaliana
4 | CCOCC [P4, Diethyl ether, reference compound] | 0.01 | –
5 | O=C(O)C(F)(F)C(F)(F)C(F)(F)C(F)(F)C(F)(F)C(F)(F)C(F)(F)F [PFOA, perfluorooctanoic acid] | – | PFOA concentration with an action of causing cell death ([4]; Calu-3, 15 hours): ≥ 1 g/L; absorbance (WST-8) ([4]; at or above 1 g/L of PFOA): hardly detected; absorbance (WST-8) ([4]; until PFOA concentration 0.1 g/L): almost at the same level
6 | FC(F)(F)c1cccc(C(F)(F)F)c1 [S1, 1,3-Bis(Trifluoromethyl) Benzene] | 0.01 | –
7 | FC(F)(F)C(F)(F)C(F)(F)C(F)(F)C(F)(F)C(F)(F)F [S2, Perfluorohexane, PFC 5060] | – | effect on cell death or intercellular tight junctions (TER) [5]: significantly promoted cell death and the like
8 | OCC(F)(F)C(F)(F)C(F)(F)C(F)(F)C(F)(F)C(F)F [S4, 1H,1H,7H-Dodecafluoro-1-heptanol] | 0.01 | –
9 | COC(F)(F)C(F)(F)C(F)(F)C(F)(F)F [S5, HFE-7100] | 1.04 | –
10 | COC(F)(C(F)(F)C(F)(F)F)C(F)(C(F)(F)F)C(F)(F)F (stereo not shown) [S7, HFE-7300] | 0.92 | change in the appearance of leaves [3]: did not change an appearance of leaves of A. thaliana
11 | C[Si](C)(C)O[Si](C)(C)C [S16, OS-10 (Hexamethyldisiloxane)] | 0 | –
12 | C[Si](C)(C)O[Si](C)(C)O[Si](C)(C)C [S17, OS-20 (Octamethyltrisiloxane)] | 0.05 | –
13 | C[Si](C)(C)O[Si](C)(C)O[Si](C)(C)O[Si](C)(C)C [S18, OS-30 (Decamethyltetrasiloxane)] | 0.92 | –
14 | C[Si]1(C)O[Si](C)(C)O[Si](C)(C)O[Si](C)(C)O[Si](C)(C)O1 [S19, Decamethylcyclopentasiloxane] | 0.92 | –
15 | FC(F)(F)C(F)(F)C(F)(F)C(F)(F)C(F)(F)C(F)(F)C(F)(F)C(F)(F)Br [S20, 1-Bromoperfluorooctane] | 1.2 | –
16 | COC(F)(F)C(F)(F)C(F)(F)F [S21, HFE-7000] | 1.01 | –
17 | HFE-7200 [S6] | 0.88 | change in the appearance of leaves [3]: did not change an appearance of leaves of A. thaliana; effect on cell death or intercellular tight junctions (TER) [5]: had less effect on cell death or intercellular tight junctions than perfluorohexane, which effect was almost the same as the controls
